# Assay results published in the supplement of paper PMC10307832.
# How the values were obtained:
# Test in all cases: relative viability (nuclei count vs DMSO), 5 days (fraction); higher = more cells survive
# [1] = compound: NC(=O)[C@@H](CCC(F)(F)F)N(Cc1ccc(-c2ncon2)cc1F)S(=O)(=O)c1ccc(Cl)cc1 [Avagacestat] + CC(=O)c1c(C)c2cnc(Nc3ccc(N4CCNCC4)cn3)nc2n(C2CCCC2)c1=O [Palbociclib] (partner 0.5 µM)
# Procedure, shortened: (§1)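 Lung cancer cell lines in 1536-well plates got either a single drug or a fixed anchor-drug dose together with five library-drug doses (not always all listed) in √10 steps, by pin tool, on the day after seeding. Nuclei were counted after 5 days, and relative viability is the treated-to-vehicle ratio of nuclei counts. Values are medians of duplicate plates.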
# [2] = compound: NC(=O)[C@@H](CCC(F)(F)F)N(Cc1ccc(-c2ncon2)cc1F)S(=O)(=O)c1ccc(Cl)cc1 [Avagacestat] + O=C(CCCCCCC(=O)Nc1ccccc1)NO [Vorinostat] (partner 1 µM)
# Procedure, shortened: as §1
# [3] = compound: NC(=O)[C@@H](CCC(F)(F)F)N(Cc1ccc(-c2ncon2)cc1F)S(=O)(=O)c1ccc(Cl)cc1 [Avagacestat] + NC(=O)Nc1cc(-c2cccc(F)c2)sc1C(=O)N[C@H]1CCCNC1 [AZD7762] (partner 0.2 µM)
# Procedure, shortened: as §1
# [4] = compound: NC(=O)[C@@H](CCC(F)(F)F)N(Cc1ccc(-c2ncon2)cc1F)S(=O)(=O)c1ccc(Cl)cc1 [Avagacestat] + C[C@@H](Oc1cc(-c2cnn(C3CCNCC3)c2)cnc1N)c1c(Cl)ccc(F)c1Cl [Crizotinib] (partner 1 µM)
# Procedure, shortened: as §1
Cell Line,relative viability ([1]; first compound 0.08 µM),relative viability ([1]; first compound 0.253 µM),relative viability ([1]; first compound 0.8 µM),relative viability ([1]; first compound 2.53 µM),relative viability ([1]; first compound 8 µM),relative viability ([2]; first compound 0.08 µM),relative viability ([2]; first compound 0.253 µM),relative viability ([2]; first compound 0.8 µM),relative viability ([2]; first compound 2.53 µM),relative viability ([2]; first compound 8 µM),relative viability ([3]; first compound 0.08 µM),relative viability ([3]; first compound 0.253 µM),relative viability ([3]; first compound 0.8 µM),relative viability ([3]; first compound 2.53 µM),relative viability ([3]; first compound 8 µM),relative viability ([4]; first compound 0.08 µM),relative viability ([4]; first compound 0.253 µM),relative viability ([4]; first compound 0.8 µM),relative viability ([4]; first compound 2.53 µM),relative viability ([4]; first compound 8 µM)
HOP-62,0.461,0.482,0.412,0.458,0.366,0.822,0.667,0.65,0.588,0.564,0.811,0.714,0.62,0.53,0.47,0.936,1.08,0.995,1.05,1.03
LC-2-ad,0.483,0.472,0.529,0.439,0.381,0.73,0.847,0.74,0.654,0.595,0.947,0.927,0.843,0.761,0.616,0.548,0.367,0.458,0.435,0.391
LCLC-97TM1,0.294,0.264,0.312,0.185,0.206,1.01,0.847,0.862,0.838,0.57,0.165,0.397,0.205,0.264,0.272,0.317,0.289,0.301,0.241,0.397
LCLC-103H,0.54,0.444,0.473,0.501,0.446,0.807,0.759,0.846,0.864,0.673,0.815,0.759,0.837,0.68,0.688,1.03,1.09,1.01,0.967,0.831
LK-2,0.949,0.818,0.64,0.542,0.824,0.196,0.353,0.265,–,0.22,0.408,0.384,0.41,0.4,0.291,0.241,0.206,0.249,0.282,0.235
LOU-NH91,0.533,0.482,0.574,0.52,0.525,1,0.878,1.03,0.798,0.885,0.828,0.838,0.864,0.673,0.736,0.739,0.725,0.732,0.73,0.761
LU99A,0.407,0.429,0.472,0.414,0.366,0.611,0.541,0.624,0.468,0.481,0.422,0.407,0.314,0.341,0.329,0.521,0.646,0.571,0.595,0.628
LXF-289,0.624,0.613,0.612,0.578,0.582,0.954,0.884,0.791,0.921,0.86,1.13,1.08,1.09,1.16,0.971,0.852,0.941,0.795,0.816,0.774
NCI-H23,0.515,0.566,0.505,0.44,0.572,0.921,0.66,0.665,0.69,0.592,0.227,0.229,0.219,0.282,0.225,0.547,0.473,0.627,0.471,0.345
NCI-H322M,0.456,0.442,0.455,0.419,0.531,0.811,0.779,0.855,0.821,0.777,0.609,0.542,0.496,0.503,0.588,0.874,1.03,0.952,0.934,0.787
NCI-H358,0.148,0.137,0.126,0.143,0.132,0.911,0.762,0.733,0.557,0.679,0.516,0.595,0.57,0.481,0.461,0.555,0.579,0.457,0.609,0.545
NCI-H441,0.242,0.214,0.249,0.229,0.218,0.991,0.932,0.899,0.761,0.595,1.02,1.23,1.37,1.35,0.877,0.977,0.816,0.71,1.19,0.629
NCI-H460,0.128,0.104,0.14,0.146,0.131,1.37,0.69,0.828,0.554,0.57,0.768,0.87,0.863,0.682,0.608,1.86,1.69,0.977,0.893,0.853
NCI-H647,0.456,0.497,0.486,0.341,0.35,0.743,0.64,0.579,0.597,0.567,0.634,0.484,0.565,0.516,0.292,1.31,1.41,1.19,1.03,1.07
NCI-H1648,0.237,0.271,0.289,0.256,0.284,0.512,0.374,0.31,0.35,0.276,0.603,0.564,0.548,0.46,0.48,–,–,–,–,–
NCI-H1793,0.348,0.324,0.331,0.263,0.316,0.841,0.985,0.773,0.865,0.993,0.619,0.474,0.373,0.346,0.228,–,–,–,–,–
NCI-H2342,0.527,0.482,0.523,0.523,0.552,0.845,0.822,0.842,0.705,0.774,0.479,0.536,0.589,0.499,0.438,–,–,–,–,–
